Results published in US7138246B2, “Methods for identifying or screening for agents that modulate 17β-HSD3” (Bristol-Myers Squibb Company, priority 2004, dated 2006).

Assays:
AR = biological target: T1, AR (Homo sapiens, UniProt P10275, Q868H); assay: testosterone-stimulated parental MDA-MB453 (direct effects on AR); format: cell-based
T1 construct: endogenous in cells; host or cells: parental MDA-MB453
T1 sequence (P10275 1-920 Q868H): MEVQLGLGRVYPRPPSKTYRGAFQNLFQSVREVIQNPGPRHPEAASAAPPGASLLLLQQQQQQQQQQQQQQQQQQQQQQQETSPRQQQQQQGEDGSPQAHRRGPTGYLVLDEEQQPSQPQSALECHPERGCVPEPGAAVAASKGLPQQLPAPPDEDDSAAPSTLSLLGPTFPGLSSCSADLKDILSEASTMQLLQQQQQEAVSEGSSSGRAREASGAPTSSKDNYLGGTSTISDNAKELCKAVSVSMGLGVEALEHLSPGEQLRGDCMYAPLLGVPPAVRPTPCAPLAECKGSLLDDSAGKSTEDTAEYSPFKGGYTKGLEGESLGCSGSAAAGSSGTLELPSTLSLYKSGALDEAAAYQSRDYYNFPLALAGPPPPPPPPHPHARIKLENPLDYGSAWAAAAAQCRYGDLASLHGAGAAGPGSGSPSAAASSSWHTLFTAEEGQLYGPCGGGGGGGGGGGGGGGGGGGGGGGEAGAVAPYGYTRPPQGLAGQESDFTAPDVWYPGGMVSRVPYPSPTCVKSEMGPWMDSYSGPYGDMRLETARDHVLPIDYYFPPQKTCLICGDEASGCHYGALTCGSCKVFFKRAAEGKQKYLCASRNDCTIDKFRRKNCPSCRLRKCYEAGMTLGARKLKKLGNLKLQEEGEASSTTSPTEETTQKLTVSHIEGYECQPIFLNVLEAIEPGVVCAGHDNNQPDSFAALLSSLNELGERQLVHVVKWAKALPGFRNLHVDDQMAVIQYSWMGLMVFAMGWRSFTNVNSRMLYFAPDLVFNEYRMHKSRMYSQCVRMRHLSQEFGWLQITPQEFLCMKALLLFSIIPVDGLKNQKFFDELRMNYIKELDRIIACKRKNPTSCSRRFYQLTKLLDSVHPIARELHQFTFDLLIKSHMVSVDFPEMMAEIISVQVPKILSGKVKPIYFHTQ

17β-HSD3 = biological target: T2, 17β-HSD3 (Homo sapiens, UniProt P37058); assay: TLC assay of androstenedione to testosterone conversion in Shinogi-17β-HSD3 cells; format: cell-based; details: Shinogi-17β-HSD3 cells incubated with {3H}-androstenedione; read-out: IC50 estimated by TLC assay
T2 sequence (P37058 1-310): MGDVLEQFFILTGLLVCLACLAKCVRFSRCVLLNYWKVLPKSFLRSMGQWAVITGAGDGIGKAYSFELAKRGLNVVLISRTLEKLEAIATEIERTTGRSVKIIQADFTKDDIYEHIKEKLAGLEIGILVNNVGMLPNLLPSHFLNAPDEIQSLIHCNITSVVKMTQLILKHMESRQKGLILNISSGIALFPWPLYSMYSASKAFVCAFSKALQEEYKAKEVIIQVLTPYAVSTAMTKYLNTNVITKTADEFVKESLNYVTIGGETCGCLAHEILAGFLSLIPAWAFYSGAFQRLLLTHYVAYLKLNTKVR
Method: Cells were plated in 24-well tissue culture plates at 5×10^4 cells per well in their appropriate media. After allowing the cells to adhere for 24 hours, the media was changed to contain 10% cFBS (charcoal treated FBS) (300 μL) per well and 0.5μ Ci of the radiolabeled hormones were added to each well. After 3 hours, the supernatant was removed and 500 μL of extraction buffer (3 parts Ethyl Acetate: 1 part Acetone) was added to each sample and vortexed extensively. The organic layer was carefully removed and dried down in siliconized 1.5 mL microfuge tubes (National Scientific Supply Co.). […] The BAS screens were then read using a Fujifilm PhosphoImager FLA-2000 and spots were quantitated using the Fujifilm MacBas imaging/densitometry program.
The characterization of breast and prostate tumor cell lines for the 17β-HSD activities enabled the identification of cells which could be engineered for preferred 17β-HSD3 activity to monitor the cellular effects of inhibitors. […] In addition, 17β-HSD mRNA was not detected at appreciable levels in these cells by RT-PCR (data not shown). […]
To confirm that this class of compounds was inhibiting 17β-HSD3, Shinogi-17β-HSD3 cells incubated with {3H}-androstenedione were analyzed by TLC assay following 2-[(3-chloro-4-hydroxybenzoyl)amino]-N-[2-(2-methoxyphenyl)ethyl]-5-phenoxybenzamide treatment.

[1] = system: testosterone biosynthesis; assay: testosterone levels in intact rats; format: in vivo; details: p.o., over 14 days, FIG. 6
Method: Intact rats were administered p.o. the indicated doses of 18β-glycyrrhetinic acid over 14 days and testosterone levels were determined.

SMILES | effects on testosterone-stimulated parental MDA-MB453 (AR) | IC50 (17β-HSD3) | testosterone biosynthesis (testosterone levels) [1]
C[C@]12C=CC(=O)C=C1C(=O)C[C@@H]1[C@@H]2CC[C@]2(C)C(=O)CC[C@@H]12 [1,4-androstadiene-1,6,17-trione] | No effects were observed | – | –
COc1ccccc1CCNC(=O)c1cc(Oc2ccccc2)ccc1NC(=O)c1ccc(O)c(Cl)c1 [2-[(3-chloro-4-hydroxybenzoyl)amino]-N-[2-(2-methoxyphenyl)ethyl]-5-phenoxybenzamide] | – | ~300 nM | –
CC1(C)[C@@H](O)CC[C@]2(C)[C@H]3C(=O)C=C4[C@@H]5C[C@@](C)(C(=O)O)CC[C@]5(C)CC[C@@]4(C)[C@]3(C)CC[C@@H]12 [18β-glycyrrhetinic acid] | No effects were observed | – | inhibition of testosterone biosynthesis
